# From paper PMC6832651, “Design, Synthesis and Investigation of the Potential Anti-Inflammatory Activity of 7-O-Amide Hesperetin Derivatives” (Molecules, 2019)
# How the values were obtained:
# [1] = system: LPS-induced NO production in RAW264.7 cells; experiment: Inhibition of LPS-induced NO production (Griess reagent); assay type: cell-based, mouse; details: for IC50: Mus musculus, 1 h pretreatment, then LPS 24 h, mean ± SD (n = 3); for LPS-induced NO release: LPS-stimulated, result in words
# Description: NO is an important inflammatory mediator and is overproduced and secreted out of mouse macrophages in response to bacterial lipopolysaccharide. To evaluate the anti-inflammatory activity of hesperetin derivatives, the secretion level of NO was detected in the medium of RAW264.7 cells after LPS stimulated with Griess reagent. Before the cells were treated with LPS (1 μg/mL) for 24 h, pretreatment with the compounds for 1 hour. […] All hesperetin derivatives could decrease the release of NO induced by LPS. […] While extended the length of the amide side chain and the inhibitory activities increased (4d > 4c > 4a; 4e > 4b). […] On the other hand, the cavity was medium-sized, large enough to accommodate cyclopentyl and propyl groups, but not enough to accommodate cyclohexyl and butyl ones (4a < 4b < 4d > 4f; 4k > 4l).
# Nitrite levels were determined using the Griess method for NO has a short half-life and is oxidized to stable nitrite. RAW 264.7 cells were plated at a density of 2 × 10^5 per well in a 24-well culture plate and incubated in a 37 °C humidified incubator (5% CO2). After overnight Cultured, discarded the supernatant, added pre-configured compounds of different concentrations to the 24-well plate, and added the same one-thousandth of the DMSO solvent as the control to the experimental group for 1 h. Then LPS was added to experimental and model groups at a concentration of […] for 24 h compared to vehicle control. Following treatment, media was collected and centrifuged at 2000 rpm for 5 min to remove cellular debris. The medium from treated cells was removed and placed into a 96-well plate (50 µL per well) and was measured in culture supernatant using Griess reagent at 540 nm. The IC50 values of compounds were calculated by SPSS23.
# [2] = system: LPS-induced NO production in RAW264.7 cells; experiment: Inhibition of LPS-induced NO production (Griess reagent); assay type: cell-based; details: Mus musculus, 10 μM compound, 1 h pretreatment, then LPS (1 μg/mL) 24 h, mean ± SD (n = 3)
IC50 [1] [µM],melting point [°C],Structure (SMILES),inhibition at 10 µM [2] [%],LPS-induced NO release [1]
42 ± 6.15,140.5 to 142.4,"COc1ccc([C@@H]2CC(=O)c3c(O)cc(OCC(=O)NC(C)(C)C)cc3O2)cc1O [Compound 4h, 7-O-(2-(tert-Butylamino)-2-oxoethyl)hesperetin]",17.5 ± 1.33,–
23.4 ± 1.64,165.4 to 167.9,"COc1ccc([C@@H]2CC(=O)c3c(O)cc(OCC(=O)N4CCCCC4)cc3O2)cc1O [Compound 6a, 7-O-(2-(piperidin-1-yl)-2-oxoethyl)hesperetin]",30.2 ± 4.67,significantly alleviated the increase of LPS-induced NO release
33.3 ± 3.3,181.9 to 184.1,"COc1ccc([C@@H]2CC(=O)c3c(O)cc(OCC(=O)NC4CCCCC4)cc3O2)cc1O [Compound 4l, 7-O-(2-(Cyclohexylamino)-2-oxoethyl)hesperetin]",20.3 ± 2,–
42.4 ± 2.06,160.7 to 162.9,"COc1ccc([C@@H]2CC(=O)c3c(O)cc(OCC(=O)NCCN4CCOCC4)cc3O2)cc1O [Compound 7c, 7-O-(2-((2-Mmorpholinoethyl)amino)-2-oxoethyl) hesperetin]",18.4 ± 4.55,–
–,167.3 to 170.1,"COc1ccc([C@@H]2CC(=O)c3c(O)cc(OCC(=O)N4CCN(C)CC4)cc3O2)cc1O [Compound 6d, 7-O-(2-(4-Methylpiperazin-1-yl)-2-oxoethyl)hesperetin]",–,–
92.5 ± 33.7,137.1 to 139.4,"COc1ccc([C@@H]2CC(=O)c3c(O)cc(OCC(=O)NCCN(C)C)cc3O2)cc1O [Compound 7b, 7-O-(2-((2-(Dimethylamino)ethyl)amino)-2-oxoethyl)hesperetin]",12.4 ± 0.67,–
–,160.7 to 162.9,"CCN1CCN(C(=O)COc2cc(O)c3c(c2)O[C@H](c2ccc(OC)c(O)c2)CC3=O)CC1 [Compound 6e, 7-O-(2-(4-Ethylpiperazin-1-yl)-2-oxoethyl)hesperetin]",–,–
31.1 ± 2.93,168.6 to 171.8,"COc1ccc([C@@H]2CC(=O)c3c(O)cc(OCC(=O)N4CCCC(CO)C4)cc3O2)cc1O (some centres unmarked) [Compound 6b, 7-O-(2-(3-(Hydroxymethyl)piperidin-1-yl)-2-oxoethyl)hesperetin]",19.3 ± 1.94,–
30 ± 0.43,152.4 to 154.7,"COc1ccc([C@@H]2CC(=O)c3c(O)cc(OCC(=O)N4CCSC4)cc3O2)cc1O [Compound 5b, 7-O-(2-(Thiazolidin-3-yl)-2-oxoethyl)hesperetin]",22.7 ± 5.71,–
28.4 ± 5.33,183.8 to 185.7,"COc1ccc([C@@H]2CC(=O)c3c(O)cc(OCC(=O)NCCO)cc3O2)cc1O [Compound 7a, 7-O-(2-((2-Hydroxyethyl)amino)-2-oxoethyl)hesperetin]",15 ± 1.99,–
29.9 ± 3.4,171.2 to 173.6,"CCNC(=O)COc1cc(O)c2c(c1)O[C@H](c1ccc(OC)c(O)c1)CC2=O [Compound 4b, 7-O-(2-(Ethylamino)-2-oxoethyl)hesperetin]",21.5 ± 1.29,–
24.59 ± 0.22,136.9 to 139.4,"COc1ccc([C@@H]2CC(=O)c3c(O)cc(OCC(=O)NCC(C)C)cc3O2)cc1O [Compound 4g, 7-O-(2-(Isobutylamino)-2-oxoethyl)hesperetin]",23.5 ± 0.74,significantly alleviated the increase of LPS-induced NO release
26.4 ± 0.46,–,"Cc1ccc(-c2cc(C(F)(F)F)nn2-c2ccc(S(N)(=O)=O)cc2)cc1 [Cel, celecoxib, reference compound]",14.5 ± 3.61,–
32.5 ± 2.46,164.1 to 165.8,"COc1ccc([C@@H]2CC(=O)c3c(O)cc(OCC(=O)N(C)C)cc3O2)cc1O [Compound 4c, 7-O-(2-(Dimethylamino)-2-oxoethyl)hesperetin]",13.5 ± 1.63,–
38.5 ± 2,179.8 to 182.7,"CNC(=O)COc1cc(O)c2c(c1)O[C@H](c1ccc(OC)c(O)c1)CC2=O [Compound 4a, 7-O-(2-(Methylamino)-2-oxoethyl)hesperetin]",16 ± 0.06,–
35.3 ± 8.07,–,"COc1ccc2c(c1)c(CC(=O)O)c(C)n2C(=O)c1ccc(Cl)cc1 [Ind, indomethacin, reference compound]",12.9 ± 3.09,–
41.7 ± 2.79,190.8 to 193.1,"COc1ccc([C@@H]2CC(=O)c3c(O)cc(OCC(=O)NC4CC4)cc3O2)cc1O [Compound 4j, 7-O-(2-(Cyclopropylamino)-2-oxoethyl)hesperetin]",9.57 ± 5.53,–
29.7 ± 3.06,136.9 to 138.4,"CCCCNC(=O)COc1cc(O)c2c(c1)O[C@H](c1ccc(OC)c(O)c1)CC2=O [Compound 4f, 7-O-(2-(Butylamino)-2-oxoethyl)hesperetin]",18 ± 0.82,–
32.6 ± 1.51,188.7 to 189.3,"COc1ccc([C@@H]2CC(=O)c3c(O)cc(OCC(=O)N4CCOCC4)cc3O2)cc1O [Compound 6f, 7-O-(2-Morpholino-2-oxoethyl)hesperetin]",21 ± 0.31,–
30.5 ± 1.66,146.3 to 147.8,"CCN(CC)C(=O)COc1cc(O)c2c(c1)O[C@H](c1ccc(OC)c(O)c1)CC2=O [Compound 4i, 7-O-(2-(Diethylamino)-2-oxoethyl)hesperetin]",17.5 ± 2.33,–
40.6 ± 5.56,123.2 to 125.8,"COc1ccc([C@@H]2CC(=O)c3c(O)cc(OCC(=O)N4CCCCC4CO)cc3O2)cc1O (some centres unmarked) [Compound 6c, 7-O-(2-(2-(Hydroxymethyl)piperidin-1-yl)-2-oxoethyl)hesperetin]",9.1 ± 3.67,–
36.2 ± 5.83,127.1 to 130.5,"COc1ccc([C@@H]2CC(=O)c3c(O)cc(OCC(=O)N4CCCC4)cc3O2)cc1O [Compound 5a, 7-O-(2-(Pyrrolidin-1-yl)-2-oxoethyl)hesperetin]",18.9 ± 4.02,–
